From ChEMBL document CHEMBL1201862, “PubChem BioAssay data set” (2004)
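Each compound was tested at five concentrations against cells in 96-well plates for 48 hours. GI50 is the concentration that inhibits growth by half.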 Calls of active or inactive are those of the source. Cut-off read from the data, not from the text of the source: active = GI50 up to about 1.1 µM and inactive = higher.

Experiments:
Assay in all cases: growth of human tumour cells (NCI), 48 h
[1] = tested on: 786-0
[2] = tested on: A498
[3] = tested on: A549
[4] = tested on: ACHN
[5] = tested on: BT-549
[6] = tested on: CAKI-1
[7] = tested on: CCRF-CEM
[8] = tested on: COLO 205
[9] = tested on: DU-145
[10] = tested on: EKVX
[11] = tested on: HCC 2998
[12] = tested on: HCT-116
[13] = tested on: HCT-15
[14] = tested on: HL-60
[15] = tested on: HOP-62
[16] = tested on: HOP-92
[17] = tested on: HT-29
[18] = tested on: Hs-578T
[19] = tested on: IGROV-1
[20] = tested on: K562
[21] = tested on: KM12
[22] = tested on: LOX IMVI
[23] = tested on: MCF7
[24] = tested on: MDA-MB-231
[25] = tested on: MDA-MB-435
[26] = tested on: MDA-N
[27] = tested on: MOLT-4
[28] = tested on: Malme-3M
[29] = tested on: NCI-H226
[30] = tested on: NCI-H23
[31] = tested on: NCI-H460
[32] = tested on: NCI-H522
[33] = tested on: NCI/ADR-RES
[34] = tested on: OVCAR-3
[35] = tested on: OVCAR-4
[36] = tested on: OVCAR-5
[37] = tested on: OVCAR-8
[38] = tested on: PC-3
[39] = tested on: RPMI-8226
[40] = tested on: RXF 393
[41] = tested on: SF-268
[42] = tested on: SF-295
[43] = tested on: SF-539
[44] = tested on: SK-MEL-28
[45] = tested on: SK-MEL-2
[46] = tested on: SK-MEL-5
[47] = tested on: SN12C
[48] = tested on: SNB-75
[49] = tested on: SR
[50] = tested on: SW-620
[51] = tested on: T47D
[52] = tested on: TK-10
[53] = tested on: U-251
[54] = tested on: UACC-257
[55] = tested on: UACC-62
[56] = tested on: UO-31
[57] = tested on: M14
[58] = tested on: SK-OV-3
[59] = tested on: SNB-19

Measured: GI50

Nc1nccc(NCC2(CO)CC(CCc3ccccc3)C2)n1 (stereo not given)
18 µM: [13]
inactive: [1] 14.6 µM | [2] 13.2 µM | [3] 13 µM | [4] 13.9 µM | [5] 21.3 µM | [6] 11.8 µM | [7] 15.1 µM | [8] 13.2 µM | [9] 12.4 µM | [10] 12.6 µM | [11] 19.5 µM | [12] 10.8 µM | [14] 6.18 µM | [15] 18.2 µM | [16] 4.93 µM | [17] 11 µM | [18] 19.8 µM | [19] 13.2 µM | [20] 4.74 µM | [21] 17 µM | [22] 14.3 µM | [23] 10 µM | [24] 16.6 µM | [25] 13.7 µM | [26] 14.9 µM | [27] 7.98 µM | [28] 13.7 µM | [29] 16 µM | [30] 12.2 µM | [31] 12.3 µM | [32] 11.8 µM | [33] 14.2 µM | [34] 12.3 µM | [35] 20.7 µM | [36] 14 µM | [37] 18.2 µM | [38] 15.1 µM | [39] 10.8 µM | [40] 15.6 µM | [41] > 10 µM | [42] 10.8 µM | [43] 15.8 µM | [44] 16.8 µM | [45] 14.5 µM | [46] 4.06 µM | [47] 19.4 µM | [48] 19.9 µM | [49] 8.71 µM | [50] 18.3 µM | [51] 6.52 µM | [52] 12.5 µM | [53] 13.7 µM | [54] 14.3 µM | [55] 12.6 µM | [56] 12.5 µM

O=c1[nH]c2nc[nH]c2c(=O)n1C1CCCCC1
> 100 µM: [13]
inactive: [1] > 100 µM | [2] > 100 µM | [3] > 100 µM | [4] > 100 µM | [5] > 100 µM | [6] > 100 µM | [7] > 100 µM | [8] > 100 µM | [9] > 100 µM | [10] > 100 µM | [11] > 100 µM | [12] > 100 µM | [14] 6.01 µM | [15] > 100 µM | [16] > 100 µM | [17] > 100 µM | [18] > 100 µM | [19] > 100 µM | [20] > 100 µM | [21] > 100 µM | [57] > 100 µM | [23] > 100 µM | [24] > 100 µM | [25] > 100 µM | [26] > 100 µM | [27] > 100 µM | [28] > 100 µM | [29] > 100 µM | [30] > 100 µM | [31] > 100 µM | [32] > 100 µM | [33] > 100 µM | [34] > 100 µM | [35] > 100 µM | [36] > 100 µM | [37] > 100 µM | [38] > 100 µM | [39] > 100 µM | [40] > 100 µM | [41] > 100 µM | [42] > 100 µM | [43] > 100 µM | [44] > 100 µM | [45] 72.9 µM | [46] > 100 µM | [58] > 100 µM | [47] > 100 µM | [59] > 100 µM | [48] > 100 µM | [49] > 100 µM | [50] > 100 µM | [51] > 100 µM | [52] > 100 µM | [53] > 100 µM | [54] > 100 µM | [55] > 100 µM | [56] > 100 µM

COc1ccc(/C(=N/O)c2ccccc2-c2nc3ccccc3c(=O)n2-c2ccc(S(=O)(=O)Nc3ncccn3)cc2)cc1C
inactive: [1] > 10 µM | [2] 20.4 µM | [3] 17.4 µM | [4] 14.4 µM | [5] 17.6 µM | [6] 21.1 µM | [7] 13.6 µM | [8] 18.9 µM | [9] 21.1 µM | [10] 16.5 µM | [11] 10.2 µM | [12] 12.7 µM | [14] 11.8 µM | [15] 16.1 µM | [16] 8.73 µM | [17] > 10 µM | [18] 29.4 µM | [19] 17.8 µM | [20] 12.2 µM | [21] 18.1 µM | [22] > 10 µM | [57] 17.1 µM | [23] 13.2 µM | [24] 18.4 µM | [25] 14.9 µM | [26] 18.3 µM | [27] 12.2 µM | [28] > 10 µM | [29] > 10 µM | [30] 12 µM | [31] 15.6 µM | [32] 14.2 µM | [33] 11.6 µM | [34] 15.8 µM | [35] 17.9 µM | [36] 24.5 µM | [37] 18.4 µM | [38] 19.7 µM | [39] 14.6 µM | [40] 11.1 µM | [41] 16.7 µM | [42] 12.9 µM | [43] 13.2 µM | [44] 14.9 µM | [46] 12.8 µM | [58] 6.81 µM | [47] > 30.2 µM | [59] 20.8 µM | [48] 14.2 µM | [49] 15.3 µM | [50] 18 µM | [51] 12.6 µM | [52] 21.8 µM | [53] 11.8 µM | [54] 17.1 µM | [55] 12.1 µM | [56] 19.6 µM
14 µM: [13]

Cc1csc2c(P(=O)(OC(C)C)OC(C)C)c(-c3ccccc3)cn12
15.9 µM: [13]
inactive: [1] 15.7 µM | [2] 18.7 µM | [3] 16.6 µM | [4] 15 µM | [5] 18.8 µM | [6] 18.2 µM | [7] 16.7 µM | [8] 18.7 µM | [9] 18.5 µM | [10] 17.2 µM | [11] 14.6 µM | [12] 14.2 µM | [14] 19 µM | [15] 18.2 µM | [16] 16.7 µM | [17] 15.6 µM | [18] 17.1 µM | [19] 15.4 µM | [20] 17.6 µM | [21] 16.8 µM | [22] 13.6 µM | [57] 18.4 µM | [23] 17.7 µM | [24] 17 µM | [25] 21.5 µM | [26] 17.9 µM | [27] 13 µM | [28] 19.9 µM | [30] 19.1 µM | [31] 16.5 µM | [32] 15.3 µM | [33] 18 µM | [34] 14.4 µM | [35] 17.5 µM | [36] 14.6 µM | [37] 17.4 µM | [38] 14.8 µM | [39] 16.3 µM | [40] 17.5 µM | [41] 16.6 µM | [42] 16.9 µM | [43] 18.3 µM | [44] 17.7 µM | [45] 16 µM | [46] 16.2 µM | [58] 18.5 µM | [47] 17.1 µM | [59] 15.1 µM | [48] 14.5 µM | [49] 16.6 µM | [50] 18.3 µM | [51] 3.84 µM | [52] 11.5 µM | [53] 16 µM | [54] 14 µM | [55] 6.62 µM | [56] 15.3 µM
